Measured values from ChEMBL document CHEMBL1201862, “PubChem BioAssay data set” (2004).
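Five compound concentrations were applied to cells in 96-well plates for 48 hours; endpoints were derived by simple linear interpolation of the resulting dose-response curve. GI50 = concentration required for 50% inhibition of growth.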 Activity calls are given as the source filed them. Cut-off read from the data, not from the text of the source: active = GI50 up to about 1.1 µM and inactive = higher.

Columns and labels:
Assay in all cases: DTP human tumour cell line panel, 48 h
CAKI-1 = system: CAKI-1
OVCAR-5 = system: OVCAR-5
SW-620 = system: SW-620
NCI/ADR-RES = system: NCI/ADR-RES
EKVX = system: EKVX
OVCAR-4 = system: OVCAR-4
NCI-H226 = system: NCI-H226
PC-3 = system: PC-3
OVCAR-8 = system: OVCAR-8
ACHN = system: ACHN
K562 = system: K562
UACC-62 = system: UACC-62
HL-60 = system: HL-60
M14 = system: M14
SNB-75 = system: SNB-75
Malme-3M = system: Malme-3M
HOP-92 = system: HOP-92
COLO 205 = system: COLO 205
SK-MEL-2 = system: SK-MEL-2

Compound: O=C1CCCC2=C1CC1=C(CCCC1=O)N2c1ccc([N+](=O)[O-])cc1
- GI50 (CAKI-1): > 100 µM (inactive)
- GI50 (OVCAR-5): > 100 µM (inactive)
- GI50 (SW-620): > 100 µM (inactive)
- GI50 (NCI/ADR-RES): > 100 µM (inactive)
- GI50 (EKVX): > 100 µM (inactive)
- GI50 (OVCAR-4): > 100 µM (inactive)
- GI50 (NCI-H226): > 100 µM (inactive)
- GI50 (PC-3): > 100 µM (inactive)
- GI50 (OVCAR-8): > 100 µM (inactive)
- GI50 (ACHN): > 100 µM (inactive)
- GI50 (K562): > 100 µM (inactive)
- GI50 (UACC-62): > 100 µM (inactive)
- GI50 (HL-60): > 100 µM (inactive)
- GI50 (M14): > 100 µM (inactive)
- GI50 (SNB-75): > 100 µM (inactive)

Compound: CCOC(=O)C1NCCc2c1[nH]c1ccccc21 (stereo not given)
- GI50 (Malme-3M): > 10 µM (inactive)
- GI50 (CAKI-1): > 10 µM (inactive)
- GI50 (SW-620): > 10 µM (inactive)
- GI50 (EKVX): > 10 µM (inactive)
- GI50 (OVCAR-4): > 10 µM (inactive)
- GI50 (HOP-92): > 10 µM (inactive)
- GI50 (COLO 205): > 10 µM (inactive)
- GI50 (PC-3): > 10 µM (inactive)
- GI50 (OVCAR-8): > 10 µM (inactive)
- GI50 (K562): > 10 µM (inactive)
- GI50 (UACC-62): > 10 µM (inactive)
- GI50 (HL-60): > 10 µM (inactive)
- GI50 (M14): > 10 µM (inactive)
- GI50 (SNB-75): > 10 µM (inactive)

Compound: CO/N=C(/C)c1cccc(Nc2nc3ccccc3c3[nH]c4ccccc4c23)c1
- GI50 (CAKI-1): 10.5 µM (inactive)
- GI50 (OVCAR-5): 6.82 µM (inactive)
- GI50 (SW-620): 10.1 µM (inactive)
- GI50 (NCI/ADR-RES): 8.97 µM (inactive)
- GI50 (NCI-H226): 13.7 µM (inactive)
- GI50 (COLO 205): 7.33 µM (inactive)
- GI50 (PC-3): 10.4 µM (inactive)
- GI50 (OVCAR-8): 6.22 µM (inactive)
- GI50 (ACHN): 3.57 µM (inactive)
- GI50 (K562): 5.97 µM (inactive)
- GI50 (UACC-62): 6.03 µM (inactive)
- GI50 (SK-MEL-2): 10.7 µM (inactive)
- GI50 (HL-60): 12.7 µM (inactive)
- GI50 (M14): 7.69 µM (inactive)
- GI50 (SNB-75): 0.302 µM (active)

Compound: CN(C)c1ccc(/C=C2\C[C@H]3[C@@H]4CC=C5C[C@@H](O)CC[C@]5(C)[C@H]4CC[C@]3(C)C2=O)cc1
- GI50 (Malme-3M): 19.5 µM (inactive)
- GI50 (OVCAR-5): 17.9 µM (inactive)
- GI50 (SW-620): 30.2 µM (inactive)
- GI50 (NCI/ADR-RES): 19.1 µM (inactive)
- GI50 (EKVX): 23.6 µM (inactive)
- GI50 (OVCAR-4): 18.1 µM (inactive)
- GI50 (NCI-H226): 20 µM (inactive)
- GI50 (COLO 205): 23.7 µM (inactive)
- GI50 (PC-3): 13.4 µM (inactive)
- GI50 (OVCAR-8): 4.88 µM (inactive)
- GI50 (ACHN): 16.2 µM (inactive)
- GI50 (K562): 32.8 µM (inactive)
- GI50 (UACC-62): 17.4 µM (inactive)
- GI50 (SK-MEL-2): 19.7 µM (inactive)
- GI50 (HL-60): > 100 µM (inactive)
- GI50 (M14): 16.6 µM (inactive)
- GI50 (SNB-75): 23.2 µM (inactive)

Compound: C/C(CC(=O)Nc1ccc(C)cc1)=N\NC(N)=S
- GI50 (Malme-3M): > 100 µM (inactive)
- GI50 (OVCAR-5): > 100 µM (inactive)
- GI50 (SW-620): > 100 µM (inactive)
- GI50 (EKVX): > 100 µM (inactive)
- GI50 (NCI-H226): > 100 µM (inactive)
- GI50 (HOP-92): > 100 µM (inactive)
- GI50 (COLO 205): > 100 µM (inactive)
- GI50 (OVCAR-8): > 100 µM (inactive)
- GI50 (ACHN): 79.4 µM (inactive)
- GI50 (K562): 64.4 µM (inactive)
- GI50 (UACC-62): > 100 µM (inactive)
- GI50 (SK-MEL-2): > 100 µM (inactive)
- GI50 (HL-60): > 100 µM (inactive)
- GI50 (M14): 66.7 µM (inactive)
- GI50 (SNB-75): > 100 µM (inactive)

Compound: CCOC(=O)C1=C(C)NC(c2ccccc2)=C(C(=O)OCc2ccccc2)C1C#Cc1ccccc1 (stereo not given)
- GI50 (Malme-3M): > 100 µM (inactive)
- GI50 (CAKI-1): 0.0675 µM (active)
- GI50 (OVCAR-5): > 100 µM (inactive)
- GI50 (SW-620): > 100 µM (inactive)
- GI50 (NCI/ADR-RES): > 100 µM (inactive)
- GI50 (EKVX): > 100 µM (inactive)
- GI50 (NCI-H226): > 100 µM (inactive)
- GI50 (COLO 205): > 100 µM (inactive)
- GI50 (PC-3): > 100 µM (inactive)
- GI50 (OVCAR-8): > 100 µM (inactive)
- GI50 (K562): > 100 µM (inactive)
- GI50 (UACC-62): > 100 µM (inactive)
- GI50 (SK-MEL-2): > 100 µM (inactive)
- GI50 (HL-60): > 100 µM (inactive)
- GI50 (M14): > 100 µM (inactive)
- GI50 (SNB-75): > 100 µM (inactive)

Compound: O=C1c2c(c3c4ccccc4n4c3c3c2c2ccccc2n3C/C=C\C4)C(=O)N1Cc1ccccc1
- GI50 (Malme-3M): > 100 µM (inactive)
- GI50 (OVCAR-5): > 100 µM (inactive)
- GI50 (SW-620): > 100 µM (inactive)
- GI50 (EKVX): > 100 µM (inactive)
- GI50 (NCI-H226): > 100 µM (inactive)
- GI50 (COLO 205): > 100 µM (inactive)
- GI50 (OVCAR-8): > 100 µM (inactive)
- GI50 (ACHN): > 100 µM (inactive)
- GI50 (K562): > 100 µM (inactive)
- GI50 (UACC-62): > 100 µM (inactive)
- GI50 (HL-60): > 100 µM (inactive)
- GI50 (M14): > 100 µM (inactive)
- GI50 (SNB-75): 30.2 µM (inactive)
